From US20240254547A1, “HIGHLY ACCURATE […]” (KAO CORPORATION, priority 2018, published 2024)

Test system: genomic DNA from the bone marrow of TG mouse
Test: Mutation analysis of mouse bone marrow genomic DNA by sequencing with information on complementary strands
Assay type: in vivo, mouse (C57BL/6JJmsSlc-Tg (gpt delta))
Settings: ENU 150 mg/kg/day intraperitoneally for 5 days, n=2
Procedure: Male TG mice which were 7 to 9 weeks old at initiation of administration were used. ENU (produced by Toronto Research Chemicals, Inc.) was dissolved in saline to a concentration of 15.0 mg/mL. By using a plastic syringe and a 25 G injection needle, […] was intraperitoneally administered to the mice once per day (ENU 150 mg/kg/day) for 5 days (ENU group). Saline was administered to a control group. Seven days after the final administration, the animals were each euthanized to resect the femur, and genomic DNA was extracted from the bone marrow by using a REcoverEase DNA Isolation Kit (produced by Agilent Technologies) in accordance with the recommended protocol. The double-stranded DNA concentration of the resulting DNA was measured by using a Qubit3.0 Fluorometer (produced by Thermo Fisher Scientific) with a Qubit™ dsDNA BR Assay Kit attached thereto. […]
Each of the libraries prepared in 3) was subjected to sequencing by using a HiSeq 2500 (produced by Illumina, Inc.), where the read length was set to 2*100 bp. […]
Edit of raw read sequences acquired through sequencing, extraction of information on complementary strands, and mutation analysis were performed by using the procedure of 5) in Example 2 in accordance with the analysis flow illustrated above in Schematic Diagrams 3 and 4. […]

CCN(N=O)C(N)=O [ENU, ethylnitrosourea]
Frequencies of A:T>T:A, A:T>G:C, and G:C>A:T versus control group: significantly higher
